Data taken from US20240207427A1, “SELECTIVE DRUG RELEASE FROM INTERNALIZED CONJUGATES OF BIOLOGICALLY ACTIVE COMPOUNDS” (priority 2021, published 2024).
Read-outs that look alike come from different tables or passages of the source.

What was measured:
Assay type in all cases: cell-based
[1] = test system: anaplastic large cell lymphoma cells (DEL); assay: In vitro potency (CellTiter-Glo, 96 h), DEL
Procedure: (§1) In vitro potency was assessed on multiple cancer cell lines. All cell lines were authenticated by STR profiling at IDEXX Bioresearch and cultured for no more than 2 months after resuscitation. Cells cultured in log-phase growth were seeded for 24 hours in 96-well plates containing […] RPMI 1640 supplemented with 20% FBS. Serial dilutions of antibody-drug conjugates in cell culture media were prepared at 4× working concentrations, and 50 μL of each dilution was added to the 96-well plates. Following addition of test articles, cells were incubated with test articles for 4 days at 37 0° C. After 96 hours, growth inhibition was assessed by CellTiterGlo® (Promega, Madison, WI) and luminescence was measured on a plate reader.
(§2) In Table 7, IC50 values for ADCs are given in ng/mL. Cell viability was determined by CellTiter-Glo staining after 96 h exposure to ADC. ND=Not Determined. Ag2 is an antibody targeting a ubiquitous and readily internalizable antigen. The cancer cell lines tested are renal carcinoma cells (786-0), melanoma cells (A2058), pancreatic cancer cells (BxPC3), non-small-cell lung cancer cells (Calu1), anaplastic large cell lymphoma cells (DEL, DELBVR, Karpas299), Hodgkin's lymphoma cells (L540cy), (Ls174T), breast cancer cells (MDA-MB-231), acute myeloid leukemia cells (MOLM-13), and B-lymphocyte cancer cells (SU-DHL4).
as §1, with “FBS.” for “FBS. Serial dilutions of antibody-drug conjugates in cell culture media were prepared at 4× working concentrations, and 50 μL of each dilution was added to the 96-well plates.”
(§3) Cell viability was determined by CellTiter-Glo staining after 96 h exposure to the compound. ND=Not Determined. The cancer cell lines tested are renal carcinoma cells (786-0), melanoma cells (A2058), pancreatic cancer cells (BxPC3), non-small-cell lung cancer cells (Calu1), anaplastic large cell lymphoma cells (DEL, DELBVR, Karpas299), Hodgkin's lymphoma cells (L540cy), (Ls 174T), breast cancer cells (MDA-MB-231), acute myeloid leukemia cells (MOLM-13), B-lymphocyte cancer cells (SU-DHL4), multiple myeloma cells (MM.1R), (U266), and melanoma cells (SK-MEL-5).
as §1, with “37°” for “37 0°”
(§4) In the following Tables IC50 values for ADCs and CPT free drugs are given in ng/mL and nmol/L concentrations. Cell viability was determined by CellTiter-Glo staining after 96 h exposure to ADC or CPT free drug.
(§5) Cell viability was determined by CellTiter-Glo staining after 96 h exposure to ADC. ND=Not Determined.

[2] = test system: Hodgkin's lymphoma cells (L540cy); assay: In vitro potency (CellTiter-Glo, 96 h), L540cy
Procedure: as §1, §2
as §1, with “FBS.” for “FBS. Serial dilutions of antibody-drug conjugates in cell culture media were prepared at 4× working concentrations, and 50 μL of each dilution was added to the 96-well plates.”
as §3
as §1, with “37°” for “37 0°”
as §4, §5

[3] = test system: acute myeloid leukemia cells (MOLM-13); assay: In vitro potency (CellTiter-Glo, 96 h), MOLM-13; details: Homo sapiens, MOLM-13, 96 h
Procedure: as §1, §2
as §1, with “FBS.” for “FBS. Serial dilutions of antibody-drug conjugates in cell culture media were prepared at 4× working concentrations, and 50 μL of each dilution was added to the 96-well plates.”
as §3
as §1, with “37°” for “37 0°”
as §4, §5

[4] = test system: pancreatic cancer cells (BxPC3); assay: In vitro potency (CellTiter-Glo, 96 h), BxPC3; details: Homo sapiens, BXPC-3, 96 h
Procedure: as §1, §2
as §1, with “FBS.” for “FBS. Serial dilutions of antibody-drug conjugates in cell culture media were prepared at 4× working concentrations, and 50 μL of each dilution was added to the 96-well plates.”
as §3
as §1, with “37°” for “37 0°”
as §4, §5

[5] = test system: anaplastic large cell lymphoma cells (DELBVR); assay: In vitro potency (CellTiter-Glo, 96 h), DELBVR
Procedure: as §1, §2
as §1, with “FBS.” for “FBS. Serial dilutions of antibody-drug conjugates in cell culture media were prepared at 4× working concentrations, and 50 μL of each dilution was added to the 96-well plates.”
as §3
as §1, with “37°” for “37 0°”
as §4, §5

[6] = test system: breast cancer cells (MDA-MB-231); assay: In vitro potency (CellTiter-Glo, 96 h), MDA-MB-231; details: Homo sapiens, MDA-MB-231, 96 h
Procedure: as §1, §2
as §1, with “FBS.” for “FBS. Serial dilutions of antibody-drug conjugates in cell culture media were prepared at 4× working concentrations, and 50 μL of each dilution was added to the 96-well plates.”
as §3
as §1, with “37°” for “37 0°”
as §4, §5

[7] = test system: renal carcinoma cells (786-O); assay: In vitro potency (CellTiter-Glo, 96 h), 786-O; details: Homo sapiens, 786-0, 96 h
Procedure: as §1, §2
as §1, with “FBS.” for “FBS. Serial dilutions of antibody-drug conjugates in cell culture media were prepared at 4× working concentrations, and 50 μL of each dilution was added to the 96-well plates.”
as §3
as §1, with “37°” for “37 0°”
as §4, §5

[8] = test system: Ls174T cells; assay: In vitro potency (CellTiter-Glo, 96 h), Ls174T; details: Homo sapiens, LS174T, 96 h
Procedure: as §1, §2
as §1, with “FBS.” for “FBS. Serial dilutions of antibody-drug conjugates in cell culture media were prepared at 4× working concentrations, and 50 μL of each dilution was added to the 96-well plates.”
as §3
as §1, with “37°” for “37 0°”
as §4, §5

[9] = test system: melanoma cells (A2058); assay: In vitro potency (CellTiter-Glo, 96 h), A2058; details: Homo sapiens, A2058, 96 h, read-out: A2058 IC50
Procedure: as §1, §2
as §1, with “FBS.” for “FBS. Serial dilutions of antibody-drug conjugates in cell culture media were prepared at 4× working concentrations, and 50 μL of each dilution was added to the 96-well plates.”
as §3
as §1, with “37°” for “37 0°”
as §4, §5

[10] = test system: anaplastic large cell lymphoma cells (Karpas299); assay: In vitro potency (CellTiter-Glo, 96 h), Karpas299; details: Homo sapiens, KARPAS-299, 96 h
Procedure: as §1, §2
as §1, with “FBS.” for “FBS. Serial dilutions of antibody-drug conjugates in cell culture media were prepared at 4× working concentrations, and 50 μL of each dilution was added to the 96-well plates.”
as §3
as §1, with “37°” for “37 0°”
as §4, §5

[11] = test system: B-lymphocyte cancer cells (SU-DHL4); assay: In vitro potency (CellTiter-Glo, 96 h), SU-DHL-4; details: Homo sapiens, SU-DHL-4, 96 h
Procedure: as §1, §2
as §1, with “FBS.” for “FBS. Serial dilutions of antibody-drug conjugates in cell culture media were prepared at 4× working concentrations, and 50 μL of each dilution was added to the 96-well plates.”
as §3
as §1, with “37°” for “37 0°”
as §4, §5

[12] = camptothecin free drug, read-out: DEL IC50
[13] = camptothecin free drug, read-out: L540cy IC50
[14] = camptothecin free drug, 96 h, read-out: MOLM-13 IC50
[15] = camptothecin free drug, 96 h, read-out: BxPC3 IC50
[16] = camptothecin free drug, read-out: DELBVR IC50
[17] = camptothecin free drug, 96 h, read-out: MDAMB231 IC50
[18] = camptothecin free drug, 96 h, read-out: 786-O IC50
[19] = camptothecin free drug, read-out: Ls174T IC50
[20] = camptothecin free drug, 96 h, read-out: Karpas299 IC50
[21] = camptothecin free drug, 96 h, read-out: SU-DHL-4 IC50

For CC[C@@]1(O)C(=O)OCc2c1cc1n(c2=O)Cc2c-1nc1cc3c(cc1c2CNC[C@@H](O)CO)OCO3 [Compound 7u], the IC50 ([1]; read-out: DEL IC50, camptothecin free drug, 96 h) was 26 nM, the IC50 ([2]; read-out: L540cy IC50, camptothecin free drug, 96 h) was 60 nM and the IC50 ([3]; read-out: MOLM-13 IC50, camptothecin free drug, 96 h) was 456 nM. It also gave an IC50 ([4]; read-out: BxPC3 IC50, camptothecin free drug, 96 h) of 108 nM, an IC50 ([5]; read-out: DELBVR IC50, camptothecin free drug, 96 h) of 50 nM and an IC50 ([6]; read-out: MDAMB231 IC50, camptothecin free drug, 96 h) of 707 nM. It also gave an IC50 ([7]; read-out: 786-O IC50, camptothecin free drug, 96 h) of 122 nM, an IC50 ([8]; read-out: Ls174T IC50, camptothecin free drug, 96 h) of 86 nM and an IC50 [9] of 19 nM. The IC50 ([10]; read-out: Karpas299 IC50, camptothecin free drug, 96 h) was 128 nM and the IC50 ([11]; read-out: SU-DHL-4 IC50, camptothecin free drug, 96 h) was 66 nM.
CC[C@@]1(O)C(=O)OCc2c1cc1n(c2=O)Cc2c-1nc1cc3c(cc1c2CNCCCN(C)C(=O)OC(C)(C)C)OCO3 [Compound 7a] showed an IC50 [1, 12] of 25 nM, an IC50 [2, 13] of 52 nM and an IC50 [3, 14] of 223 nM. It also gave an IC50 [4, 15] of 81 nM, an IC50 [5, 16] of 49 nM and an IC50 [6, 17] of 390 nM. The IC50 [7, 18] was 111 nM, the IC50 [8, 19] was 74 nM and the IC50 ([9]; camptothecin free drug, 96 h) was 23 nM. It also gave an IC50 [10, 20] of 135 nM and an IC50 [11, 21] of 64 nM.
CC[C@@]1(O)C(=O)OCc2c1cc1n(c2=O)Cc2c-1nc1cc3c(cc1c2CNCCN1CCN(C(=O)OC(C)(C)C)CC1)OCO3 [Compound 7f] gave an IC50 [1, 12] of 52 nM, an IC50 [2, 13] of 66 nM and an IC50 [3, 14] of over 1000 nM. For the same compound, the IC50 [4, 15] was 155 nM, the IC50 [5, 16] was 52 nM and the IC50 [6, 17] was 776 nM. It also gave an IC50 [7, 18] of 130 nM, an IC50 [8, 19] of 69 nM and an IC50 ([9]; camptothecin free drug, 96 h) of 41 nM. It also gave an IC50 [10, 20] of 162 nM and an IC50 [11, 21] of 83 nM.
With CC[C@@]1(O)C(=O)OCc2c1cc1n(c2=O)Cc2c-1nc1cc3c(cc1c2CNCCCN1CCN(C(=O)OC(C)(C)C)CC1)OCO3 [Compound 7m] the IC50 [1, 12] was 55 nM, the IC50 [2, 13] was 80 nM and the IC50 [3, 14] was 459 nM. For the same compound, the IC50 [4, 15] was 173 nM, the IC50 [5, 16] was 54 nM and the IC50 [6, 17] was 700 nM. It also gave an IC50 [7, 18] of 139 nM, an IC50 [8, 19] of 222 nM and an IC50 ([9]; camptothecin free drug, 96 h) of 58 nM. For the same compound, the IC50 [10, 20] was 171 nM and the IC50 [11, 21] was 74 nM.
